{"source": "patent US20210100781A1", "about": "“TUMOR SUPPRESSION” (Kyoto University, priority 2019, published 2021)", "key": {"[1]": {"system": "lytic genes", "experiment": "Suppression of lytic induction in KSHV+ PEL cells (RT-PCR and Western blotting)", "type": "cell-based", "conditions": "BC-3 cells and BCBL-1 cells undergoing lytic induction, 48 hours", "text": "Both of the BC-3 cells and the BCBL-1 cells are cell lines of KSHV^+ PEL cells. Regarding the BC-3 cells, it is known that TPA (12-O-tetradecanoylphorbol-13-acetate) and SB (sodium butyrate) cause cytokine stimulation, which results in the lytic induction. Further, regarding the BCBL-1 cells, it is known that VPA (valproic acid) causes cytokine stimulation, which results in the lytic induction.\nSuch cytokine stimulation was given to the BC-3 cells and the BCBL-1 cells, and the cells were cultured for 24 hours or 48 hours. Then, RNA of the same was collected, and was subjected to RT-PCR.\nEffects of the compound A (the compound A produced in Production Example 1, also described as “Cp. A”) were confirmed by using the same BC-3 cells and BCBL-1 cells as those in Reference Example 1.\nThe compound A was added to the BC-3 cells and the BCBL-1 cells undergoing lytic induction and cultured for 48 hours; then, the cultured cells were analyzed by RT-PCR and Western blotting."}, "[2]": {"system": "KSHV", "experiment": "Suppression of viral replication: KSHV copy number by real-time PCR", "type": "cell-based", "conditions": "BCBL-1 cells undergoing lytic induction, 96 hours, compound increased to 5 μM and to 10 μM", "procedure": "Effects of the compound A on the KSHV copy number were analyzed by real-time PCR.\nThe compound A was added to the BCBL-1 cells undergoing lytic induction and cultured for 96 hours; then, DNA samples were collected and analyzed by real-time PCR."}, "[3]": {"system": "BCBL-1 cells", "experiment": "Intraperitoneal administration to PEL xenograft mouse models", "type": "in vivo, mice (NOD/SCID mice)", "conditions": "300 mg/kg bw intraperitoneally three times a week, 45 days", "procedure": "BCBL-1 cells were intraperitoneally inoculated into immunodeficient mice (NOD/SCID mice) so that PEL xenograft models were produced. PEL refers to “primary effusion lymphoma”, as described above. The mice were divided into a compound A administered group and a control group. […] To the control group, PBS was administered intraperitoneally three times a week instead of the compound A. Exemplary results thereof are shown in FIG. 5."}, "[4]": {"system": "KSHV", "experiment": "Viruses in ascites and plasma of PEL xenograft mice", "type": "in vivo, mice (NOD/SCID mice)", "conditions": "300 mg/kg bw intraperitoneally three times a week, 45 days", "procedure": "BCBL-1 cells were intraperitoneally inoculated into immunodeficient mice (NOD/SCID mice) so that PEL xenograft models were produced. PEL refers to “primary effusion lymphoma”, as described above.\nThe mice were divided into a compound A administered group and a control group. […] To the control group, PBS was administered intraperitoneally three times a week instead of the compound A. Exemplary results thereof are shown in FIG. 5.\nViruses in ascites and plasma of the above-described mice were detected."}, "[5]": {"system": "E6 and E7 genes of HPV", "conditions": "known from WO2005/063293, WO2009/020198, Yamamoto et al. 2014; cited from earlier work"}}}
{"molecule": "Fc1ccc(N2CCCCC2)c(NC(=S)c2ccncc2)c1", "note": "[compound A, N-[5-fluoro-2-(1-piperidinyl)phenyl]-4-pyridinethioamide]", "values": [{"measurement": "expression of the lytic genes at protein level (Western blotting)", "setting": "[1]", "value": "suppressed"}, {"measurement": "expression amount of lytic genes (RT-PCR)", "setting": "[1]; compound increased to 5 μM and to 10 μM", "value": "decreased"}, {"measurement": "virus copy number (real-time PCR)", "setting": "[2]", "value": "decreased"}, {"measurement": "amount of ascites", "setting": "[3]; vs control group (PBS)", "value": "significantly less"}, {"measurement": "enlarged spleen", "setting": "[3]; vs control group, data not shown", "value": "particularly suppressed"}, {"measurement": "amount of viruses in ascites", "setting": "[4]; ascites", "value": "significantly decrease"}, {"measurement": "amount of viruses in plasma", "setting": "[4]; plasma", "value": "significantly decrease"}, {"measurement": "expression of the E6 and E7 genes of HPV", "setting": "[5]", "value": "suppress"}, {"measurement": "p53 gene stabilization", "setting": "[5]", "value": "stabilize"}]}
